Key:
[1] = test system: KB cells; assay: In vitro activity in KB cells (3H-thymidine incorporation); type: cell-based; settings: 3H-thymidine incorporation relative to untreated controls
Experimental: Cells were seeded in 24-well Falcon plates and allowed to form nearly confluent monolayers overnight. After one rinse with 1 mL of fresh FFRPMI/HIFCS, each well received 1 mL, of medium containing increasing concentrations of test agent (3 wells per sample). Cells were pulsed with targeted agents for 2 hr at 37° C., rinsed 4 times with 0.5 mL of medium, and then chased in 1 mL of fresh medium up to 70 hr. Cells were treated with non-targeted agent EC0347 for a continuous 72 h. Spent medium was aspirated from all wells and replaced with fresh medium containing 5 μCi/mL ^3H-thymidine. After a further 2 hr 37° C. incubation, cells were washed 3 times with 0.5 mL of PBS and then treated with 0.5 mL of ice-cold […] per well. After 15 min, the trichloroacetic acid was aspirated and the cell material solubilized by the addition of 0.5 mL of 0.25 N sodium hydroxide for 15 min. Four hundred and fifty microliters of each solubilized sample were transferred to scintillation vials containing 3 mL of Ecolume scintillation cocktail and then counted in a liquid scintillation counter. Final tabulated results were expressed as the percentage of ^3H-thymidine incorporation relative to untreated controls and IC50 values calculated using Graphpad Prism software.

[2] = test system: subcutaneous KB tumors; assay: Antitumor activity in KB tumor model; type: in vivo, Female Balb/c nu/nu mice; settings: FIG. 1; 2 μmol/kg, single-dose; n=5; mice with subcutaneous KB tumors
Experimental: Female Balb/c nu/nu mice were fed ad libitum with folate-deficient chow (Harlan diet #TD01013) for the duration of the experiment. KB tumor cells were inoculated subcutaneously at the right flank of each mouse. Mice were dosed after the tumors have reached a range of 107-152 mm^3 through the lateral tail vein under sterile conditions in a volume of 200 μL of phosphate-buffered saline (PBS).
Growth of each s.c. tumor was followed by measuring the tumor two times per week. Tumors were measured in two perpendicular directions using Vernier calipers, and their volumes were calculated as 0.5×L×W^2, where L=measurement of longest axis in mm and W=measurement of axis perpendicular to L in mm.

SMILES | IC50 ([1]; targeted agents pulsed 2 hr at 37° C., chased up to 70 hr) | cure (number of mice) [2] | IC50 ([1]; Homo sapiens, non-targeted agent, continuous 72 h)
C#CCN(Cc1ccc2nc(N)[nH]c(=O)c2c1)c1ccc(C(=O)N[C@@H](CCC(=O)OCCSSC[C@H](NC(=O)[C@H](CCC(=O)NC[C@H](O)[C@@H](O)[C@H](O)[C@H](O)CO)NC(=O)[C@H](CCC(=O)O)NC(=O)[C@H](CCC(=O)NC[C@H](O)[C@@H](O)[C@H](O)[C@H](O)CO)NC(=O)[C@H](CCC(=O)O)NC(=O)[C@H](CCC(=O)NC[C@H](O)[C@@H](O)[C@H](O)[C@H](O)CO)NC(=O)CCSSCCOC(=O)NNC(=O)[C@@H](C)C[C@H](Cc2ccc(O)cc2)NC(=O)c2csc([C@@H](C[C@H](C(C)C)N(COC(=O)CCC)C(=O)[C@@H](NC(=O)[C@H]3CCCCN3C)C(C)CC)OC(C)=O)n2)C(=O)O)C(=O)O)cc1 (stereo partly drawn) [EC2133] | 0.8 nM | 1 | –
CCCC(=O)OCN(C(=O)[C@@H](NC(=O)[C@H]1CCCCN1C)C(C)CC)[C@H](C[C@@H](OC(C)=O)c1nc(C(=O)N[C@@H](Cc2ccc(O)cc2)C[C@H](C)C(=O)NN)cs1)C(C)C (stereo partly drawn) [EC0347, Tubulysin B Hydrazide, reference compound] | – | – | 1.5 nM

Source: patent publication US20180110871A1, “DUAL DISULFIDE DRUG CONJUGATES” (ENDOCYTE, INC., priority 2015, published 2018)
